Source: US20120270786A1, “INTESTINE AND MUSCLE RECOVERY” (I.N.R.A., priority 2009, published 2012)
Marks after values point to notes of the source that are not given here.

Experiments:
Type in all cases: in vivo, rat
proteasome = assay: Peptidase activities of the proteasome in the small intestine of fed and starved rats
Method: (§1) Young male Wistar rats (50-60 g) were obtained from Charles River (L'Arbresle, France) and maintained in a temperature controlled room (22±1° C.) with a 12 h light/12 h dark cycle. They were given free access to a standard rodent diet (A03; UAR, Epernay sur Orge, France) and to water during a 5 days acclimatization period. Three experiments were conducted. (1) In the first experiment, rats were fed ad libitum or fasted for 1 or 2 days. At the end of the fasting period, rats were anesthetized with intraperitoneal injection of urethane (1.7 g/kg body weight, Sigma Aldrich, Lyon, France) and sacrificed. […]
Proteins from pieces of jejunum and/or ileum were homogenized using a polytron homogenizer, in ice-cold buffer (pH 7.5) containing 50 mmol/L Tris/HCl, 5 mmol/L MgCl2, 250 mmol/L sucrose, 10 mmol/L ATP, 1 mmol/L DTT, 10 μg/mL aprotinin, 10 μg/mL leupeptin, 10 μg/mL antipain, 10 μg/mL pepstatin A, and 0.2 mmol/L phenylmethylsulphonylfluoride (PMSF). […] The protein content of the proteasome preparation was determined using the Biorad protein assay following the manufacturer instructions. […] The accumulation of AMC at 37° C. during 45 minutes was measured continuously as described for cathepsin activities measurements. The difference between arbitrary fluorescence units recorded with or without 40 μmol/L […]of the proteasome inhibitor MG132 (Affiniti) in the reaction medium was calculated. […]

Cathepsin B+L+S = Cathepsin B+L+S activity in the ileum; conditions: compared with untreated rats, P<0.0005
Method: as §1
(§2) The five cm pieces of jejunum and/or ileum were immediately homogenized using a polytron homogenizer in a 10 mmol/L phosphate buffer (pH 7.4) containing 50 mmol/L KCl, 1 mmol/L EDTA and 0.25 mol/L sucrose as described previously.^30 Homogenates were then centrifuged at 1,000 g (10 minutes, 4° C.). […] Cathepsin B and cathepsin B+L+S activities were determined using the fluorogenic substrates Z-arginine-arginine-AMC (ZAA-AMC, 50 μmol/L, Sigma), Z-phenylalanine-arginine-AMC (ZPA-AMC, 30 μmol/L, Sigma), respectively.^30 Neutral pH reducing the cathepsin L activity, the bulk of the cathepsin B+L+S activity measured with ZPA-AMC at pH 7.0 reflects the cathepsin B+S activity. […] Fluorescence was measured continuously at 380 nm excitation and 440 nm emission wavelengths. […]

[1] = system: starvation-induced skeletal muscle atrophy; assay: Starvation-induced skeletal muscle atrophy (experiment 3); conditions: for EDL mass / gastrocnemius mass / tibialis anterior mass: GLP-2, mean ± SEM, n=5
Method: (§3) Young male Wistar rats (50-60 g) were obtained from Charles River (L'Arbresle, France) and maintained in a temperature controlled room (22±1° C.) with a 12 h light/12 h dark cycle. They were given free access to a standard rodent diet (A03; UAR, Epernay sur Orge, France) and to water during a 5 days acclimatization period. Three experiments were conducted. (1) In the first experiment, rats were fed ad libitum or fasted for 1 or 2 days. At the end of the fasting period, rats were anesthetized with intraperitoneal injection of urethane (1.7 g/kg body weight, Sigma Aldrich, Lyon, France) and sacrificed. (2) In the second experiment, animals were randomly divided into control and GLP-2 treated groups (n=26-30 per group). Injections of saline (400 μL) or GLP-2 (20 μg/400 μL of saline) every 12 h started at day 0 and continued until the end of the experiment. At day 4, half of each group was deprived of food for 2 days. At day 6, animals were sacrificed as described. (3) In the last experiment, rats were allocated as described in experiment 2. Control and GLP-2 treated groups (n=20 per group) were divided into 2 groups of fed (n=5) and starved rats (n=15). Saline and GLP-2 injections continued until the sacrifice of the rats. At day 6, 5 rats from the fed and the 48 h-fasted groups treated or not with GLP-2 were sacrificed as described. The remaining fasted animals from the control and GLP-2 treated groups were refed ad libitum from day 6 for 6 or 24 h. After refeeding, rats were sacrificed as described.
(§4) The entire small intestine was rapidly excised, rinsed three times with ice-cold PBS, blotted and weighed. Ten cm caudal to the pyloric sphincter and ten cm cranial to the ileo-caecal junction were taken and discarded. Jejunum and ileum were excised, weighed, and divided in small pieces of 5 cm. The first piece was immediately processed for cathepsin activities. The remaining pieces were frozen in liquid nitrogen, and stored at −80° C. until further analyses. In experiment 3, skeletal muscles (EDL, gastrocnemius and tibialis anterior) were also carefully dissected and weight.
(§5) Data are expressed as means±SEM. One-way or two-way ANOVA were used to address for fasting effect in experiment 1 and for fasting and GLP-2 effects experiment 2 and 3. A posteriori PLSD Fisher's test was performed in order to assess for differences among groups. P values <0.05 were considered statistical significance and P values <0.10 were considered statistical tendency.

small intestinal mass = assay: Small intestinal mass recovery after 48 h starvation and 6 or 24 h refeeding
Method: as §3, §4

[2] = system: villus height and crypt depth in the jejunum and ileum; assay: Histologic and morphometric measurements of villus height and crypt depth in jejunum and ileum; conditions: GLP-2 treatment
Method: as §3
Tissue samples from jejunum and ileum were fixed in 10% formaldehyde buffered with Na2CO3 (10 g/L) and processed for villus height and crypt depth measurements. Treatment designation of slides was blinded at the time of measurement.

Cathepsin B = Cathepsin B activity in the ileum; conditions: compared with untreated rats, P<0.002
Method: as §1, §2

[3] = system: starvation-induced body weight loss and intestine atrophy; assay: Starvation-induced body weight loss and intestine atrophy in saline- or GLP-2-injected rats (experiment 2); conditions: for Body weight / Ileum mass / Jejunum mass / Small intestine mass: GLP-2 20 μg every 12 h, mean ± SEM
Method: as §3, §4, §5

[4] = system: Tibialis anterior, gastrocnemius and EDL muscle masses; assay: Skeletal muscle mass recovery after 48 h starvation and 24 h refeeding
Method: as §3, §4

[5] = system: Cathepsin (B, B+S, B+L+S and D); assay: Cathepsin activities in the jejunum of fed and starved rats
Method: as §1, §2

[6] = GLP-2 effect, two-way ANOVA, P<0.0001

HGDGSFSDEMNTILDNLATRDFINWLIQTKITD (Rat GLP-2 sequence with an Ala-->Gly exchange in position 2) [Rat recombinant GLP-2, [Ala] in position 2 substituted by [Gly] to make the peptide resistant to DPP IV degradation]
Peptidase activities of the proteasome (proteasome; jejunum or ileum, daily administration of GLP-2): not modified
increase of the chymotrypsin- and the trypsin-like activities (proteasome; jejunum, following fasting): did not block the increase
decrease of cathepsin B+L+S activity (Cathepsin B+L+S): −50%
EDL mass ([1]; fed rats): 45.7 ± 0.9^a mg
gastrocnemius mass ([1]; fed rats): 0.513 ± 0.013^a g
tibialis anterior mass ([1]; fed rats): 195.7 ± 5.0^a mg
skeletal muscle loss (tibialis anterior, gastrocnemius, EDL) ([1]; following 2 days of starvation): did not prevent
EDL mass ([1]; starved rats (48 h)): 37.2 ± 0.9^b mg
gastrocnemius mass ([1]; starved rats (48 h)): 0.415 ± 0.006^b g
tibialis anterior mass ([1]; starved rats (48 h)): 156.6 ± 2.0^b mg
small intestinal atrophy (small intestinal mass; after 6 h of refeeding, P<0.001): 15%
small intestinal atrophy (small intestinal mass; after 24 h of refeeding): totally absent
small intestine recovery (small intestinal mass; after 24 h of refeeding, GLP-2 treated rats): totally recovered
recovery of the small intestinal mass (small intestinal mass; refed rats after 48 h starvation, compared to saline injected animals): accelerated recovery
villus height in the ileum [2]: no effect
crypt depth in the ileum ([2]; following fasting): did not inhibit the reduction
crypt depth in the jejunum ([2]; following starvation): blocked the decrease
reduction of the villus height in the jejunum ([2]; following starvation): −13%
decrease of cathepsin B activity (Cathepsin B): −43%
atrophy of the jejunum ([3]; GLP-2-treated starved rats vs. saline injected-fed rats, P<0.005): −12%
increase of jejunal mass [3, 6]: 21%
increase of total small intestinal mass [3, 6]: 22%
increase of ileal mass ([3]; GLP-2 effect, two-way ANOVA, P<0.005): 17.5%
starvation-induced loss of body weight ([3]; GLP-2 treated group, starved vs fed): −22%
whole small intestine and ileum mass ([3]; GLP-2 treated-starved rats compared with saline injected-fed rats): similar
Body weight ([3]; fed rats, day 6): 112.5 ± 1.7^a g
Ileum mass ([3]; fed rats): 1.24 ± 0.07^b g
Jejunum mass ([3]; fed rats): 3.45 ± 0.08^b g
Small intestine mass ([3]; fed rats): 5.57 ± 0.17^b g
Body weight ([3]; rats starved 2 days): 87.2 ± 1.0^b g
Ileum mass ([3]; rats starved 2 days): 1.02 ± 0.05^a g
Jejunum mass ([3]; rats starved 2 days): 2.62 ± 0.09^d g
Small intestine mass ([3]; rats starved 2 days): 4.56 ± 0.11^a g
reduction of the atrophy of the small intestine induced by starvation ([3]; starved rats receiving GLP-2): 16%
EDL muscle recovery ([4]; after 24 h of refeeding): totally recovered
Tibialis anterior muscle recovery ([4]; after 24 h of refeeding): totally recovered
gastrocnemius atrophy ([4]; after 24 h of refeeding, compared to GLP-2 treated fed rats, P<0.05): 9%
skeletal muscle recovery ([4]; refeeding after 48 h starvation): enhanced
cathepsin activities [5]: blocked the increase
